According to ChEMBL document CHEMBL5608109, “Hepatotoxicity screening of Donated Chemical Probes” (2024):

Tested on: Hepatocyte spheroids
Test: This assay model using primary human hepatocyte (PHH) spheroids, which are cultured in Williams E medium. After spheroid formation, cells are exposed to compounds in an FBS-free culture medium. […] Imaging is performed on an Opera Phenix High-Content Screening System, allowing quantification of proliferation as a readout for evaluating the effects of chemical probes on hepatocyte regeneration.
Format: functional
Details: read-out: Cell Viability; for viability at 1 µM: Concentration 1 uM; for viability at 10 µM: Concentration 10 uM; for viability at 0.1 µM: Concentration 0.1 uM

SMILES	viability at 1 µM	viability at 10 µM	viability at 0.1 µM	viability at 2 µM (Concentration 2 uM)	viability at 20 µM (Concentration 20 uM)
c1ccc(N2CCN(Cc3nc4ccccc4[nH]3)CC2)nc1	117% (non-toxic)	110% (non-toxic)	–	–	–
COc1cc(-c2cn([C@H]3CCc4c(F)cccc4N(CC(F)(F)F)C3=O)nn2)ccc1-n1cnc(C)c1	115% (non-toxic)	126% (non-toxic)	–	–	–
Clc1cccc(-c2nnnn2Cc2cccnc2)c1Cl	97.1% (non-toxic)	98.7% (non-toxic)	–	–	–
Cc1nc(N2CC[C@H](O)C2)ncc1-c1cc(C(F)(F)F)cc2[nH]ncc12	116% (non-toxic)	107% (non-toxic)	–	–	–
O=C1CCc2cc(Nc3cc(OC4CCOCC4)c([N+](=O)[O-])cc3Cl)ccc2N1	147% (non-toxic)	76% (non-toxic)	–	–	–
CC(C)(O)[C@H](F)CN1Cc2cc(NC(=O)c3cnn4cccnc34)c(N3CCOCC3)cc2C1=O	118% (non-toxic)	90.2% (non-toxic)	–	–	–
O=C(O)c1cc(-c2ccc(C3CCNCC3)cc2)c2ccc(-c3ccc(C(F)(F)F)cc3)cc2c1	91.3% (non-toxic)	1.07% (toxic)	–	–	–
C[C@@H](c1cccc(CN)c1)n1cc(Cl)cc(C(N)=O)c1=N	104% (non-toxic)	111% (non-toxic)	–	–	–
CCCCN(CCCC)C(=O)CN1C[C@H](c2cc(OC)c3c(c2)OCO3)[C@@H](C(=O)O)[C@@H]1CC(C)(C)CCC	83.6% (non-toxic)	–	107% (non-toxic)	–	–
c1ccc2oc(-c3csc(C4CCN(Cc5nc6ncccc6[nH]5)CC4)n3)cc2c1	88.5% (non-toxic)	35.4% (toxic)	–	–	–
CCOc1ccc(S(=O)(=O)Nc2ccc(Cl)cc2C#Cc2cnc(C(=O)O)cc2OC)c2ncccc12	91.1% (non-toxic)	17.2% (toxic)	–	–	–
CC1=CC(C)=[N+]2C1=C(CCCCc1cn(CC(=O)N3CCc4nc(NC(=O)[C@H]5CCN(C#N)C5)sc4C3)nn1)c1c(C)cc(C)n1[B-]2(F)F	104% (non-toxic)	105% (non-toxic)	–	–	–
CCNC(=O)c1cc2c(N3CCOCC3C)ccnc2[nH]1 (configuration not stated)	90.1% (non-toxic)	74.9% (non-toxic)	–	–	–
Cn1cncc1[C@](O)(COc1ccc(C#N)cc1-c1ccc(OC(F)(F)F)cc1)c1ccc(C#N)cc1	112% (non-toxic)	113% (non-toxic)	–	–	–
N#CN1CC[C@H](C(=O)Nc2nc3c(s2)CN(C(=O)CN=[N+]=[N-])CC3)C1 [8RK64]	97.6% (non-toxic)	70.7% (toxic)	–	–	–
CN(C)[C@@H]1CCN(c2cc(-c3ccccc3)nc3ccnn23)C1 [(R)-ZINC-3573]	111% (non-toxic)	95.8% (non-toxic)	–	–	–
CNC(=O)Nc1ccc2c(c1)CC[C@@]21OC(=O)N(CC(=O)N(Cc2ccc(F)cc2)[C@@H](C)C(F)(F)F)C1=O [A-485]	69.1% (toxic)	–	102% (non-toxic)	–	–
CCCOc1ccc([C@H]2[C@H](C(=O)O)[C@@H](c3ccc4c(c3)OCO4)CN2CC(=O)Nc2c(CC)cccc2CC)cc1 [A-192621]	110% (non-toxic)	–	104% (non-toxic)	–	–
CN(C)CC#Cc1ccc(OCCCc2sc(N3CCc4cccc(C(=O)Nc5nc6ccccc6s5)c4C3)nc2C(=O)O)c(F)c1 [A-1155463]	120% (non-toxic)	117% (non-toxic)	–	–	–
CO[C@H]1CC[C@H](CNc2ccc(S(=O)(=O)NC(=O)c3ccc(N4CCN(CC5=C(c6ccc(Cl)cc6)CC(C)(C)CC5)CC4)cc3Oc3cnc4[nH]ccc4c3)cc2[N+](=O)[O-])CC1 [A-1211212]	130% (non-toxic)	126% (non-toxic)	–	–	–
COc1ccc2c(c1)O[C@@H](c1ccc(OC)c(OC)c1)C[C@H]2NC(=O)C1(c2ccc3c(c2)OC(F)(F)O3)CC1 [A-1596586]	104% (non-toxic)	88.5% (non-toxic)	–	–	–
Cc1ccccc1Oc1cc(-n2c(=O)cc(C(F)(F)F)[nH]c2=O)c2ccccc2c1Cl [BAY-069]	82.5% (non-toxic)	62.5% (toxic)	–	–	–
CNCc1ccccc1-c1csc([C@@H](C)Nc2nc(C)nc3cc(OC)c(OC)cc23)c1 [BAY-293]	120% (non-toxic)	0.873% (toxic)	–	–	–
O=C(N1CCS(=O)(=O)CC1)N1C[C@H](c2ccc(OC(F)(F)F)cc2)C[C@H](c2nc(C3CC3)no2)C1 [BAY-386]	121% (non-toxic)	111% (non-toxic)	–	–	–
O[C@]1(C(F)(F)F)CCCC[C@H]1Nc1ccc(F)cc1 [BAY-390]	96.9% (non-toxic)	–	99.2% (non-toxic)	–	–
CC1=C(C#N)C(c2ccc3[nH]nc(C)c3c2)C(C#N)=C(C)N1 [BAY-474]	99.5% (non-toxic)	111% (non-toxic)	–	–	–

SMILES	viability at 1 µM	viability at 10 µM	viability at 0.1 µM	viability at 2 µM (Concentration 2 uM)	viability at 20 µM (Concentration 20 uM)
Cc1c[nH]c2nccc(Oc3c(F)cc(Nc4cc(Cl)nc(N)n4)cc3F)c12 [BAY-549]	83.7% (non-toxic)	–	79.9% (non-toxic)	–	–
CC(=O)C1=C(C)N(c2cccc(C(F)(F)F)c2)C(=O)N[C@@H]1c1ccc(C#N)nc1 [BAY-678]	139% (non-toxic)	132% (non-toxic)	–	–	–
O=C(NCc1ncc(C(F)(F)F)cc1Cl)c1ccc2c(c1)C1(CCS(=O)(=O)CC1)[C@H](C1CC1)N2S(=O)(=O)c1ccc(F)cc1 [BAY-784]	107% (non-toxic)	–	103% (non-toxic)	–	–
Cc1cc(C)c(-n2ccn3nc(-c4cccnc4)cc23)cc1NC(=O)c1cc(C#N)cc(S(F)(F)(F)(F)F)c1 [BAY-826]	144% (non-toxic)	–	149% (non-toxic)	–	–
Cc1c(NC(=O)c2cc(C(N)=O)nc3cc(F)ccc23)c(C(F)(F)F)nn1Cc1ccc(C#N)cc1 [BAY-876]	91.5% (non-toxic)	21.4% (toxic)	–	–	–
CN1CCN(c2cnc3c(C4CCN(C(=O)c5ccc(OC(F)(F)F)cc5N)CC4)ncnc3c2)CC1 [BAY-885]	99.8% (non-toxic)	98.6% (non-toxic)	–	–	–
O=C(Nc1cnc(Oc2ccc(F)cc2)nc1)N1CCc2ncccc2[C@@H]1c1ccc(F)cc1 [BAY-899]	92.3% (non-toxic)	106% (non-toxic)	–	–	–
C[C@H](c1ccnc(Nc2nc3ccc(-c4cc(N(C)C)ncn4)cc3[nH]2)c1)N1CCN(C(=O)CC(F)(F)F)CC1 [BAY-985]	68.2% (non-toxic)	38.1% (toxic)	–	–	–
NS(=O)(=O)c1cc(NC(=O)Cc2ccccc2)ccc1Oc1cccc(Cl)c1 [BAY-1797]	111% (non-toxic)	19.3% (toxic)	–	–	–
CCc1ccccc1C(=O)Nc1n[nH]c2c(C)c(F)c(C3C(C#N)=C(C)N(C)C(C)=C3C#N)cc12 [BAY-3827]	110% (non-toxic)	84.2% (non-toxic)	–	–	–
Cc1c(N2CCCC2)nc2ccc(Br)cc2c1C(=O)NC[C@H](CCC(=O)O)c1ccccc1Cl [BAY-6672]	106% (non-toxic)	111% (non-toxic)	–	–	–
O=C(O)[C@H]1[C@H](Cn2nnc3ccccc3c2=O)CC[C@@H]1C(=O)c1ccc(OCCC2CCOCC2)cc1 [BAY-7598]	97.3% (non-toxic)	–	96.9% (non-toxic)	–	–
NC(=O)c1ccc2nc(-c3ccc(C4(N)CCC4)cc3)c(-c3ccccc3)n2n1 [BAY-1125976]	75.2% (non-toxic)	–	94.8% (non-toxic)	–	–
COc1ccc2c(O[C@@H]3C[C@H]4C(=O)N[C@]5(C(=O)O)CC5/C=C\CCCCC[C@H](NC(=O)OC5CCCC5)C(=O)N4C3)cc(-c3csc(NC(=O)C(C)C)n3)nc2c1C (some centres not stated) [BI 1230]	106% (non-toxic)	0.711% (toxic)	–	–	–
CCOCCn1cc(C(=O)Nc2ccc(-n3nc(-c4cccnc4)cc3C(F)(F)F)cn2)ccc1=O [BI 1935]	100% (non-toxic)	34.7% (toxic)	–	–	–
C[C@H](NC(=O)c1cnc2n1[C@](C)(Cc1ccc(C#N)cc1)C(=O)N2c1cc(Cl)c(F)c(Cl)c1)C(=O)NC1(c2ccccn2)CC1 [BI 1950]	110% (non-toxic)	121% (non-toxic)	–	–	–
Cc1c(NC(=O)COc2ccc(Cl)cc2C(=O)c2cc(F)cc(C(F)(F)F)c2)ccc(C(=O)O)c1F [BI 2540]	95.6% (non-toxic)	93.1% (non-toxic)	–	–	–
O=C(NC[C@@H]1[C@H]2CN(C(=O)OCc3cc(C(F)(F)F)cc(C(F)(F)F)c3)C[C@@H]12)c1ccc2[nH]nnc2c1 [BI 2545]	119% (non-toxic)	76.5% (non-toxic)	–	–	–
CCOC(=O)c1cc2cc(-c3cc(C(=O)NCc4ccc(C(=O)O)cc4)nn3C)ccc2[nH]1 [BI 4394]	106% (non-toxic)	–	108% (non-toxic)	–	–
CC(=O)N1CCC(c2ccc(C(=O)NC(=N)N)cc2C(F)(F)F)CC1 [BI 9627]	78.4% (non-toxic)	106% (non-toxic)	–	–	–
CCC(=O)N[C@H]1CC[C@@H](C(=O)N(C)c2ccc(-c3nc4ccccc4o3)cc2)C1 [BI 99179]	81.6% (non-toxic)	55.6% (toxic)	–	–	–
CS(=O)(=O)c1cc(C2(NC(=O)c3cncc4c3cnn4-c3ccc(F)cc3)CC2)ccn1 [BI 639667]	–	–	–	60.2% (toxic)	59.6% (toxic)
CCS(=O)(=O)c1cc2cc(C[C@](O)(CC(C)(C)c3ccc(F)cc3C(N)=O)C(F)(F)F)[nH]c2cn1 [BI 653048]	116% (non-toxic)	116% (non-toxic)	–	–	–
CN(C)C(=O)Cn1cc(-c2nc([C@@](C)(c3ccc(-c4cnc(N)nc4)cc3)C3CC3)no2)cn1 [BI 665915]	84.4% (non-toxic)	–	104% (non-toxic)	–	–
CC[C@H](CC(=O)O)n1c(=O)c2ncccc2n(Cc2cn(C)c3cc(C)cc(C)c23)c1=O [BI-1942]	53.2% (toxic)	65.2% (toxic)	–	–	–
